From patent publication US20220257592A1, “METHODS OF TREATING CANCER” (HOFFMANN-LA ROCHE INC., priority 2019, published 2022)
Marks after values point to notes of the source that are not given here.

Test: Clinical trial safety, integrated analysis of ALKA, STARTRK-1, STARTRK-2, STARTRK-NG (N=504)
From the text: The following categories of frequency have been used: very common ≥1/10, common (≥1/100 to <1/10), uncommon (≥1/1,000 to <1/100), rare (≥1/10,000 to <1/1000), very rare (<1/10,000).

[1] = patients less than 65 years old

CN1CCN(c2ccc(C(=O)Nc3n[nH]c4ccc(Cc5cc(F)cc(F)c5)cc34)c(NC3CCOCC3)c2)CC1 [Entrectinib, N-[5-(3,5-difluorobenzyl)-1H-indazol-3-yl]-4-(4-methyl-piperazin-1-yl)-2-(tetrahydro-pyran-4-ylamino)-benzamide]
Laboratory: Hyperuricemia, Change from Baseline All Grades (N = 382): 50.8%
Laboratory: Hyperuricemia, Change from Baseline to Grade 3 or 4 (N = 382): 6.8%
Laboratory: Decreased Neutrophils, Change from Baseline All Grades (N = 457): 27.8%
Laboratory: Decreased Neutrophils, Change from Baseline to Grade 3 or 4 (N = 457): 6.3%
Laboratory: Increased AST, Change from Baseline All Grades (N = 478): 43.3%
Laboratory: Increased AST, Change from Baseline to Grade 3 or 4 (N = 478): 3.3%
Laboratory: Increased ALT, Change from Baseline All Grades (N = 479): 38.4%
Laboratory: Increased ALT, Change from Baseline to Grade 3 or 4 (N = 479): 3.1%
Laboratory: Increased Blood Creatinine, Change from Baseline All Grades (N = 480): 94.8%
Laboratory: Increased Blood Creatinine, Change from Baseline to Grade 3 or 4 (N = 480): 3.1%
Laboratory: Decreased Hemoglobin, Change from Baseline All Grades (N = 487): 65.7%
Laboratory: Decreased Hemoglobin, Change from Baseline to Grade 3 or 4 (N = 487): 9.2%
ALT increased, All Grades (N = 504): 16.1%
ALT increased, Frequency Category (All Grades) (N = 504): very common (very common ≥1/10)
ALT increased, Grade ≥3 (N = 504): 3.4%
AST increased, All Grades (N = 504): 17.5%
AST increased, Frequency Category (All Grades) (N = 504): very common (very common ≥1/10)
AST increased, Grade ≥3 (N = 504): 3.6%
Abdominal pain, All Grades (N = 504): 11.1%
Abdominal pain, Frequency Category (All Grades) (N = 504): very common (very common ≥1/10)
Abdominal pain, Grade ≥3 (N = 504): 0.6%
Anemia, All Grades (N = 504): 28.2%
Anemia, Frequency Category (All Grades) (N = 504): very common (very common ≥1/10)
Anemia, Grade ≥3 (N = 504): 9.7%
Arthralgia, All Grades (N = 504): 19.0%
Arthralgia, Frequency Category (All Grades) (N = 504): very common (very common ≥1/10)
Arthralgia, Grade ≥3 (N = 504): 0.6%
Ataxia, Frequency Category (All Grades) (N = 504): very common (very common ≥1/10)
Ataxia, Grade ≥3 (N = 504): 0.8%
Blood creatinine increased, All Grades (N = 504): 25.4%
Blood creatinine increased, Frequency Category (All Grades) (N = 504): very common (very common ≥1/10)
Blood creatinine increased, Grade ≥3 (N = 504): 0.6%
Cognitive Disorders, All Grades (N = 504): 24.2%
Cognitive Disorders, Frequency Category (All Grades) (N = 504): very common (very common ≥1/10)
Cognitive Disorders, Grade ≥3 (N = 504): 4.4%
Congestive Heart Failure, All Grades (N = 504): 3.0%
Congestive Heart Failure, Frequency Category (All Grades) (N = 504): common (common (≥1/100 to <1/10))
Congestive Heart Failure, Grade ≥3 (N = 504): 2.2%
Constipation, All Grades (N = 504): 42.9%
Constipation, Frequency Category (All Grades) (N = 504): very common (very common ≥1/10)
Constipation, Grade ≥3 (N = 504): 0.4%
Cough, All Grades (N = 504): 21.4%
Cough, Frequency Category (All Grades) (N = 504): very common (very common ≥1/10)
Cough, Grade ≥3 (N = 504): 0.6%
Decreased appetite, All Grades (N = 504): 11.9%
Decreased appetite, Frequency Category (All Grades) (N = 504): very common (very common ≥1/10)
Decreased appetite, Grade ≥3 (N = 504): 0.2%
Dehydration, All Grades (N = 504): 7.9%
Dehydration, Frequency Category (All Grades) (N = 504): common (common (≥1/100 to <1/10))
Dehydration, Grade ≥3 (N = 504): 1.0%
Diarrhea, All Grades (N = 504): 33.5%
Diarrhea, Frequency Category (All Grades) (N = 504): very common (very common ≥1/10)
Diarrhea, Grade ≥3 (N = 504): 2.6%
Dizziness, All Grades (N = 504): 39.7%
Dizziness, Frequency Category (All Grades) (N = 504): very common (very common ≥1/10)
Dizziness, Grade ≥3 (N = 504): 1.2%
Dysasthesia, All Grades (N = 504): 29.0%
Dysasthesia, Frequency Category (All Grades) (N = 504): very common (very common ≥1/10)
Dysasthesia, Grade ≥3 (N = 504): 0.2%
Dysgeusia, All Grades (N = 504): 42.3%
Dysgeusia, Frequency Category (All Grades) (N = 504): very common (very common ≥1/10)
Dysgeusia, Grade ≥3 (N = 504): 0.4%
Dysphagia, All Grades (N = 504): 10.1%
Dysphagia, Frequency Category (All Grades) (N = 504): very common (very common ≥1/10)
Dysphagia, Grade ≥3 (N = 504): 0.4%
Dyspnea, All Grades (N = 504): 27.0%
Dyspnea, Frequency Category (All Grades) (N = 504): very common (very common ≥1/10)
Edema, All Grades (N = 504): 37.3%
Edema, Frequency Category (All Grades) (N = 504): very common (very common ≥1/10)
Edema, Grade ≥3 (N = 504): 1.4%
Electrocardiogram QT prolonged, All Grades (N = 504): 2.0%
Electrocardiogram QT prolonged, Grade ≥3 (N = 504): 0.6%
Fatigue, All Grades (N = 504): 45.0%
Fatigue, Frequency Category (All Grades) (N = 504): very common (very common ≥1/10)
Fatigue, Grade ≥3 (N = 504): 5.0%
Fractures, All Grades (N = 504): 6.2%
Fractures, Frequency Category (All Grades) (N = 504): common (common (≥1/100 to <1/10))
Fractures, Grade ≥3 (N = 504): 2.4%
Headache, All Grades (N = 504): 17.5%
Headache, Frequency Category (All Grades) (N = 504): very common (very common ≥1/10)
Headache, Grade ≥3 (N = 504): 1.0%
Hyperuricemia, All Grades (N = 504): 9.1%
Hyperuricemia, Frequency Category (All Grades) (N = 504): common (common (≥1/100 to <1/10))
Hyperuricemia, Grade ≥3 (N = 504): 1.8%
Hypotension, All Grades (N = 504): 16.5%
Hypotension, Frequency Category (All Grades) (N = 504): very common (very common ≥1/10)
Hypotension, Grade ≥3 (N = 504): 2.4%
Lung infection, All Grades (N = 504): 13.1%
Lung infection, Frequency Category (All Grades) (N = 504): very common (very common ≥1/10)
Mood disorders, All Grades (N = 504): 9.1%
Mood disorders, Frequency Category (All Grades) (N = 504): common (common (≥1/100 to <1/10))
Mood disorders, Grade ≥3 (N = 504): 0.6%
Muscular weakness, All Grades (N = 504): 12.3%
Muscular weakness, Frequency Category (All Grades) (N = 504): very common (very common ≥1/10)
Muscular weakness, Grade ≥3 (N = 504): 1.2%
Myalgia, All Grades (N = 504): 19.6%
Myalgia, Frequency Category (All Grades) (N = 504): very common (very common ≥1/10)
Myalgia, Grade ≥3 (N = 504): 0.6%
Nausea, All Grades (N = 504): 32.1%
Nausea, Frequency Category (All Grades) (N = 504): very common (very common ≥1/10)
Nausea, Grade ≥3 (N = 504): 0.8%
Neutropenia, All Grades (N = 504): 11.3%
Neutropenia, Frequency Category (All Grades) (N = 504): very common (very common ≥1/10)
Neutropenia, Grade ≥3 (N = 504): 4.4%
Pain, All Grades (N = 504): 24.4%
Pain, Frequency Category (All Grades) (N = 504): very common (very common ≥1/10)
Pain, Grade ≥3 (N = 504): 1.6%
Peripheral Sensory Neuropathy, Frequency Category (All Grades) (N = 504): very common (very common ≥1/10)
Peripheral sensory neuropathy, All Grades (N = 504): 15.7%
Peripheral sensory neuropathy, Grade ≥3 (N = 504): 1.0%
Pyrexia, All Grades (N = 504): 20.0%
Pyrexia, Frequency Category (All Grades) (N = 504): very common (very common ≥1/10)
Pyrexia, Grade ≥3 (N = 504): 0.8%
Rash, All Grades (N = 504): 11.5%
Rash, Frequency Category (All Grades) (N = 504): very common (very common ≥1/10)
Rash, Grade ≥3 (N = 504): 1.4%
Sleep disturbances, All Grades (N = 504): 13.5%
Sleep disturbances, Frequency Category (All Grades) (N = 504): very common (very common ≥1/10)
Sleep disturbances, Grade ≥3 (N = 504): 0.4%
Syncope, All Grades (N = 504): 4.6%
Syncope, Frequency Category (All Grades) (N = 504): common (common (≥1/100 to <1/10))
Syncope, Grade ≥3 (N = 504): 3.0%
Tumor lysis syndrome, All Grades (N = 504): 0.2%
Tumor lysis syndrome, Frequency Category (All Grades) (N = 504): uncommon (uncommon (≥1/1,000 to <1/100))
Urinary tract infection, All Grades (N = 504): 12.7%
Urinary tract infection, Frequency Category (All Grades) (N = 504): very common (very common ≥1/10)
Urinary tract infection, Grade ≥3 (N = 504): 2.6%
Vision Blurred, Frequency Category (All Grades) (N = 504): very common (very common ≥1/10)
Vision Blurred, Grade ≥3 (N = 504): 0.4%
Vomiting, All Grades (N = 504): 23.2%
Vomiting, Frequency Category (All Grades) (N = 504): very common (very common ≥1/10)
Vomiting, Grade ≥3 (N = 504): 1.2%
Weight increased, All Grades (N = 504): 26.4%
Weight increased, Frequency Category (All Grades) (N = 504): very common (very common ≥1/10)
Weight increased, Grade ≥3 (N = 504): 7.3%
Ataxia, All Grades (N = 504, ataxia, balance disorder, gait disturbances): 15.7%
Vision Blurred, All Grades (N = 504, diplopia, vision blurred, visual impairment): 11.9%
Entrectinib interrupted due to fractures (adult patients): 36.0%
Grade 3 or 4 bone fractures (adult patients): 1.9%
Grade 3 or 4 headache (adult patients): 0.6%
Grade 3 or 4 neutropenia (adult patients): 3.4%
Grade 3 or 4 weight increased (adult patients): 6.9%
Fractures (adult patients (N=475)): 5.3%
Median time to fracture (adults, range: 0.26 months to 18.5 months): 3.42 months
Ataxia (elderly (65 years or older)): 23.8%
Blood creatinine increased (elderly (65 years or older)): 31.5%
Dizziness (elderly (65 years or older)): 48.5%
Hypotension (elderly (65 years or older)): 21.5%
Bilateral femoral neck fractures (human, in vivo): 2 pediatric patients
Cognitive disorders, Grade 3 events (human, in vivo): 4.4%
Cognitive symptoms: amnesia (human, in vivo): 2.8%
Cognitive symptoms: cognitive disorders (human, in vivo): 6.3%
Cognitive symptoms: confusional state (human, in vivo): 7.3%
Cognitive symptoms: delirium (human, in vivo): 0.8%
Cognitive symptoms: disturbance in attention (human, in vivo): 3.8%
Cognitive symptoms: hallucination (human, in vivo): 1.0%
Cognitive symptoms: hallucination visual (human, in vivo): 0.4%
Cognitive symptoms: memory impairment (human, in vivo): 4.2%
Cognitive symptoms: mental disorder (human, in vivo): 0.2%
Cognitive symptoms: mental status changes (human, in vivo): 1.2%
Discontinuation due to fractures (human, in vivo): No patients discontinued
Eye disorders: diplopia (human, in vivo): 2.6%
Eye disorders: vision blurred (human, in vivo): 8.5%
Eye disorders: visual impairment (human, in vivo): 1.6%
Overall safety profile in elderly patients vs patients younger than 65 years (human, in vivo): similar
Patients recovered from ataxia (human, in vivo): 67.1%
Patients recovered from peripheral neuropathy (human, in vivo): 55.7%
Patients recovered from the eye disorder events (human, in vivo): 61.7%
Dyspnea, Grade ≥3 (human, in vivo, 5.5 months): 5.8* %
Lung infection, Grade ≥3 (human, in vivo, 5.5 months): 6.0* %
Tumor lysis syndrome, Grade ≥3 (human, in vivo, 5.5 months): 0.2* %
Ataxia [1]: 12.8%
Blood creatinine increased [1]: 23.3%
Dizziness [1]: 36.6%
Hypotension [1]: 14.7%
QTcF interval of ≥500 ms (patients with at least one post-baseline ECG assessment, 12 patients): 2.8%
QTcF interval prolongation of >60 ms after starting entrectinib (patients with at least one post-baseline ECG assessment, 17 patients): 4.0%
Cognitive disorder events (patients with brain metastases at baseline): 29.7%
Cognitive disorder events (patients without brain metastases): 23.1%
Entrectinib interrupted due to fractures (pediatric patients): 33.3%
Grade 3 or 4 bone fractures (pediatric patients): 12.5%
Grade 3 or 4 headache (pediatric patients): 6.3%
Grade 3 or 4 neutropenia (pediatric patients): 28.1%
Grade 3 or 4 weight increased (pediatric patients): 21.9%
Fractures (pediatric patients (N=29)): 20.7%
Median time to fracture (pediatric patients, range: 1.77 months to 7.39 months): 3.38 months
Disturbance in attention of Grade 1 severity (pediatric population (1/29)): 3.4%
Eye disorders, median duration (range 0.03 months to 14.49 months): 1.02 months
Peripheral sensory neuropathy, median time to onset (range 0.03 months to 20.93 months): 0.49 months
Ataxia, median duration (range: 0.03 months to 11.99 months): 0.66 months
Eye disorders, median time to onset (range: 0.03 months to 21.59 months): 1.87 months
Ataxia, median time to onset (range: 0.03 months to 28.19 months): 0.36 months
Peripheral sensory neuropathy, median duration (range: 0.07 months to 6.01 months): 0.76 months
